Assays:
[1] = tested on: MDA-MB-231 breast cancer cells; details: high PPARγ expressing cells, 24 hours
Description: (§1) To detect breast cancer cell death via cell viability assay, the mitochondrial activity, as an index of cell viability, was measured using the MTT method (Mosmann, T. J Immunol Methods, 1983; 65: 55-63). Briefly, cells were treated in triplicates in 96-well plate. After completion of the experimental period, 20 μl of MTT reagent (5 mg/ml) was added per well of culture (containing 100 μl treatment media). The reaction was allowed to proceed for 4 to 6 h at 37° C. SDS (10%) was then added (200 μl/well) overnight and the absorption at 595 nm measured.

[2] = tested on: SHEP1 and SHSY5Y neuroblastoma cells; details: 24 hours
Description: as §1

SHEP1 cells = details: mPPARg PCMX versus empty vector, 0 to 5 uM
Description: as §1

T47D breast cancer cells = details: low PPARγ expressing cells, 24 hours
Description: as §1

PPARγ = details: SHEP1 cells, 0 to 5 uM, 18 hours
Description: To determine if C19H24N3O5S5Pr binds to PPARγ, neuroblastoma SHEP1 cells were transiently co-transfected with either empty vector or a DNA-binding mutant of PPARγ, 3×PPPRE luciferase plasmid and renilla plasmid for transfection efficiency. Forty eight hours following transfection, the cells were exposed to increased concentration (0 to 5 uM) of C19H24N3O5S5Pr for 18 hours. PPARγ activity was calculated as luciferase RLU/renilla/μg total protein.

PTEN, RhoB, MnSOD = details: HCT-116 tumors, 100 μg or 200 μg per mouse, 21 days of treatment
Description: HCT-116 colorectal tumor cells were grafted onto nude mice. Tumor-bearing mice were then treated with solvent control or different concentrations of (100 μg, 200 μg) C19H24N3O5S5Pr. After 21 days of treatment, the mice were sacrificed, after which tumors were harvested and proteins extracted for Western Blot analysis.

LC3 II = LC3 II formation by Western blot; type: cell-based; details: SHEP-1 and SHSY5Y cells, 5 μM and 10 μM, 4 hr, 8 hr and 18 hr

CS(C)=O.CS(C)=O.[O-][n+]1ccccc1[S-].[O-][n+]1ccccc1[S-].[O-][n+]1ccccc1[S-].[Pr+3] [C19H24N3O5S5Pr, praseodymium (2-mercaptopyridine N-oxide)(dimethylsulfoxide)]
cell viability (MTT) [1]: inhibits growth
cell viability (MTT), SHEP1 versus SHSY5Y cells [2]: has a greater growth of SHEP1 cells compared to SHSY5Y cells
cell viability on overexpression of wild type PPARγ (SHEP1 cells): greater decrease in cell viability
cell viability (MTT) (T47D breast cancer cells): remained viable
PPARγ activation on overexpression of DNA-binding mutant PPARγ (PPARγ): significantly reduced the ability of C19H24N3O5S5Pr to activate PPARγ
PTEN, RhoB and MnSOD protein expression in tumors (PTEN, RhoB, MnSOD): regulated
LC3 II induction (LC3 II): induction of phosphtidylethaonolamine (PE)-conjugated form of microtubule-associated protein 1 light chain 3 (LC3 II)

Source: US8691851B2, “Lanthanide metal complexes useful in treating cancer” (National University of Singapore, priority 2009, dated 2014)
